From ChEMBL document CHEMBL1201862, “PubChem BioAssay data set” (2004)
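Each compound was tested at five concentrations against cells in 96-well plates for 48 hours. The concentration for 50% growth inhibition is given as GI50.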 Active and inactive are the calls of the source. No stated cut-off is given here; in the data, active = GI50 up to about 1.1 µM and inactive = higher.

What was measured:
Assay in all cases: NCI-60 cell line screen, 48 h
786-0 = test system: 786-0
A549 = test system: A549
ACHN = test system: ACHN
BT-549 = test system: BT-549
CAKI-1 = test system: CAKI-1
CCRF-CEM = test system: CCRF-CEM
COLO 205 = test system: COLO 205
DU-145 = test system: DU-145
EKVX = test system: EKVX
HCC 2998 = test system: HCC 2998
HCT-116 = test system: HCT-116
HCT-15 = test system: HCT-15
HL-60 = test system: HL-60
HOP-62 = test system: HOP-62
HT-29 = test system: HT-29
Hs-578T = test system: Hs-578T
IGROV-1 = test system: IGROV-1
K562 = test system: K562
KM12 = test system: KM12
LOX IMVI = test system: LOX IMVI
M14 = test system: M14
MCF7 = test system: MCF7
MDA-MB-231 = test system: MDA-MB-231
MDA-MB-435 = test system: MDA-MB-435
MOLT-4 = test system: MOLT-4
Malme-3M = test system: Malme-3M
NCI-H226 = test system: NCI-H226
NCI-H23 = test system: NCI-H23
NCI-H460 = test system: NCI-H460
NCI-H522 = test system: NCI-H522
NCI/ADR-RES = test system: NCI/ADR-RES
OVCAR-3 = test system: OVCAR-3
OVCAR-4 = test system: OVCAR-4
OVCAR-5 = test system: OVCAR-5
OVCAR-8 = test system: OVCAR-8
PC-3 = test system: PC-3
RPMI-8226 = test system: RPMI-8226
RXF 393 = test system: RXF 393
SF-268 = test system: SF-268
SF-295 = test system: SF-295
SF-539 = test system: SF-539
SK-MEL-28 = test system: SK-MEL-28
SK-MEL-2 = test system: SK-MEL-2
SK-MEL-5 = test system: SK-MEL-5
SK-OV-3 = test system: SK-OV-3
SN12C = test system: SN12C
SNB-19 = test system: SNB-19
SNB-75 = test system: SNB-75
SR = test system: SR
SW-620 = test system: SW-620
T47D = test system: T47D
TK-10 = test system: TK-10
U-251 = test system: U-251
UACC-257 = test system: UACC-257
UACC-62 = test system: UACC-62
UO-31 = test system: UO-31
A498 = test system: A498
HOP-92 = test system: HOP-92
MDA-N = test system: MDA-N

C/C(=C\CO)CC/C=C(\C)CNc1c(F)c(F)c(F)c(F)c1F was tested, and the GI50 (786-0) was 44.1 µM (inactive), the GI50 (A549) was 28.7 µM (inactive) and the GI50 (ACHN) was 43.2 µM (inactive). For the same molecule, the GI50 (BT-549) was 6.4 µM (inactive), the GI50 (CAKI-1) was 33.3 µM (inactive) and the GI50 (CCRF-CEM) was 28.1 µM (inactive). The GI50 (COLO 205) was 27.5 µM (inactive), the GI50 (DU-145) was 43.6 µM (inactive) and the GI50 (EKVX) was 30.7 µM (inactive). For the same molecule, the GI50 (HCC 2998) was 24.7 µM (inactive), the GI50 (HCT-116) was 50.8 µM (inactive) and the GI50 (HCT-15) was 30.2 µM. For the same molecule, the GI50 (HL-60) was 28.7 µM (inactive), the GI50 (HOP-62) was 24.7 µM (inactive) and the GI50 (HT-29) was 24 µM (inactive). The GI50 (Hs-578T) was 33.7 µM (inactive), the GI50 (IGROV-1) was 49.5 µM (inactive) and the GI50 (K562) was 33 µM (inactive). The GI50 (KM12) was 27.5 µM (inactive), the GI50 (LOX IMVI) was 29.2 µM (inactive) and the GI50 (M14) was 38.2 µM (inactive). For the same molecule, the GI50 (MCF7) was 29.2 µM (inactive), the GI50 (MDA-MB-231) was 19 µM (inactive) and the GI50 (MDA-MB-435) was 22.9 µM (inactive). For the same molecule, the GI50 (MOLT-4) was 29.6 µM (inactive), the GI50 (Malme-3M) was 27.4 µM (inactive) and the GI50 (NCI-H226) was 28.1 µM (inactive). For the same molecule, the GI50 (NCI-H23) was > 100 µM (inactive), the GI50 (NCI-H460) was 36.1 µM (inactive) and the GI50 (NCI-H522) was 18.4 µM (inactive). The GI50 (NCI/ADR-RES) was 30.8 µM (inactive), the GI50 (OVCAR-3) was 20.2 µM (inactive) and the GI50 (OVCAR-4) was 44.5 µM (inactive). For the same molecule, the GI50 (OVCAR-5) was 36.5 µM (inactive), the GI50 (OVCAR-8) was 19.8 µM (inactive) and the GI50 (PC-3) was 21.1 µM (inactive). The GI50 (RPMI-8226) was 14 µM (inactive), the GI50 (RXF 393) was 24.8 µM (inactive) and the GI50 (SF-268) was 23.1 µM (inactive). The GI50 (SF-295) was 22.4 µM (inactive), the GI50 (SF-539) was 20.8 µM (inactive) and the GI50 (SK-MEL-28) was 20.5 µM (inactive). The GI50 (SK-MEL-2) was 20.7 µM (inactive), the GI50 (SK-MEL-5) was 15.8 µM (inactive) and the GI50 (SK-OV-3) was 63.8 µM (inactive). The GI50 (SN12C) was 20.2 µM (inactive), the GI50 (SNB-19) was 27.7 µM (inactive) and the GI50 (SNB-75) was 28.1 µM (inactive). The GI50 (SR) was 28.3 µM (inactive), the GI50 (SW-620) was 33.2 µM (inactive) and the GI50 (T47D) was 61.2 µM (inactive). The GI50 (TK-10) was 29.5 µM (inactive), the GI50 (U-251) was 24.3 µM (inactive) and the GI50 (UACC-257) was 21.3 µM (inactive). The GI50 (UACC-62) was 17.2 µM (inactive) and the GI50 (UO-31) was 35.6 µM (inactive).

For O=C(C#Cc1ccccc1)C1=Cc2ccccc2OC1, the GI50 (786-0) was 2.4 µM (inactive), the GI50 (A498) was 19.2 µM (inactive) and the GI50 (A549) was 9.31 µM (inactive). The GI50 (ACHN) was 2.17 µM (inactive), the GI50 (BT-549) was 2.16 µM (inactive) and the GI50 (CAKI-1) was 1.88 µM (inactive). The GI50 (CCRF-CEM) was 0.198 µM (active), the GI50 (COLO 205) was 1.92 µM (inactive) and the GI50 (DU-145) was 5.53 µM (inactive). For the same molecule, the GI50 (EKVX) was 2.09 µM (inactive), the GI50 (HCC 2998) was 7.38 µM (inactive) and the GI50 (HCT-116) was 1.92 µM (inactive). The GI50 (HCT-15) was 2.37 µM, the GI50 (HL-60) was 2.19 µM (inactive) and the GI50 (HOP-62) was 13.6 µM (inactive). For the same molecule, the GI50 (HT-29) was 2.11 µM (inactive), the GI50 (Hs-578T) was 8.26 µM (inactive) and the GI50 (IGROV-1) was 2.38 µM (inactive). For the same molecule, the GI50 (K562) was 2.61 µM (inactive), the GI50 (KM12) was 4.25 µM (inactive) and the GI50 (LOX IMVI) was 0.783 µM (active). For the same molecule, the GI50 (M14) was 3.01 µM (inactive), the GI50 (MCF7) was 1.42 µM (inactive) and the GI50 (MDA-MB-231) was 3.21 µM (inactive). The GI50 (MDA-MB-435) was 3.86 µM (inactive), the GI50 (MOLT-4) was 3.33 µM (inactive) and the GI50 (Malme-3M) was 4.2 µM (inactive). The GI50 (NCI-H226) was 2.55 µM (inactive), the GI50 (NCI-H23) was 2.14 µM (inactive) and the GI50 (NCI-H460) was 4.83 µM (inactive). The GI50 (NCI-H522) was 1.37 µM (inactive), the GI50 (NCI/ADR-RES) was 2.79 µM (inactive) and the GI50 (OVCAR-3) was 2.35 µM (inactive). For the same molecule, the GI50 (OVCAR-4) was 3.34 µM (inactive), the GI50 (OVCAR-5) was 2.99 µM (inactive) and the GI50 (OVCAR-8) was 2.39 µM (inactive). The GI50 (PC-3) was 4.34 µM (inactive), the GI50 (RPMI-8226) was 2.71 µM (inactive) and the GI50 (RXF 393) was 3 µM (inactive). For the same molecule, the GI50 (SF-268) was 5.5 µM (inactive), the GI50 (SF-295) was 20.7 µM (inactive) and the GI50 (SF-539) was 1.93 µM (inactive). For the same molecule, the GI50 (SK-MEL-28) was 7.53 µM (inactive), the GI50 (SK-MEL-2) was 3.94 µM (inactive) and the GI50 (SK-MEL-5) was 2.08 µM (inactive). The GI50 (SK-OV-3) was 15 µM (inactive), the GI50 (SN12C) was 3.85 µM (inactive) and the GI50 (SNB-19) was 15 µM (inactive). For the same molecule, the GI50 (SNB-75) was 6.14 µM (inactive), the GI50 (SR) was 7.23 µM (inactive) and the GI50 (SW-620) was 2.22 µM (inactive). The GI50 (T47D) was 3.26 µM (inactive), the GI50 (TK-10) was 1.9 µM (inactive) and the GI50 (U-251) was 3.6 µM (inactive). For the same molecule, the GI50 (UACC-257) was 2.7 µM (inactive), the GI50 (UACC-62) was 1.94 µM (inactive) and the GI50 (UO-31) was 2.06 µM (inactive).

CC(=O)C1=C(N=[N+]=[N-])c2cccc3cccc(c23)C1=O was tested, and the GI50 (786-0) was 17.1 µM (inactive), the GI50 (A498) was 28.8 µM (inactive) and the GI50 (A549) was 24.5 µM (inactive). The GI50 (ACHN) was 16 µM (inactive), the GI50 (BT-549) was 20.8 µM (inactive) and the GI50 (CAKI-1) was 15.3 µM (inactive). For the same molecule, the GI50 (CCRF-CEM) was 5.73 µM (inactive), the GI50 (COLO 205) was 15.7 µM (inactive) and the GI50 (EKVX) was 18.2 µM (inactive). The GI50 (HCC 2998) was 17.6 µM (inactive), the GI50 (HCT-116) was 16 µM (inactive) and the GI50 (HCT-15) was 15.7 µM. For the same molecule, the GI50 (HOP-62) was 14.8 µM (inactive), the GI50 (HOP-92) was 21.7 µM (inactive) and the GI50 (HT-29) was 17.6 µM (inactive). The GI50 (Hs-578T) was 29.3 µM (inactive), the GI50 (IGROV-1) was 16.1 µM (inactive) and the GI50 (K562) was 8.11 µM (inactive). For the same molecule, the GI50 (KM12) was 21.1 µM (inactive), the GI50 (LOX IMVI) was 14.7 µM (inactive) and the GI50 (M14) was 12.7 µM (inactive). The GI50 (MCF7) was 10.6 µM (inactive), the GI50 (MDA-MB-231) was 11.5 µM (inactive) and the GI50 (MDA-MB-435) was 20.6 µM (inactive). The GI50 (MDA-N) was 18.9 µM (inactive), the GI50 (MOLT-4) was 7.19 µM (inactive) and the GI50 (Malme-3M) was 17.3 µM (inactive). For the same molecule, the GI50 (NCI-H226) was 24.7 µM (inactive), the GI50 (NCI-H23) was 20 µM (inactive) and the GI50 (NCI-H460) was 21 µM (inactive). The GI50 (NCI-H522) was 14.2 µM (inactive), the GI50 (NCI/ADR-RES) was 25.1 µM (inactive) and the GI50 (OVCAR-3) was 12.2 µM (inactive). The GI50 (OVCAR-4) was 23.6 µM (inactive), the GI50 (OVCAR-5) was 16.5 µM (inactive) and the GI50 (OVCAR-8) was 23.6 µM (inactive). The GI50 (PC-3) was 19.8 µM (inactive), the GI50 (RPMI-8226) was 18.5 µM (inactive) and the GI50 (RXF 393) was 11.4 µM (inactive). For the same molecule, the GI50 (SF-268) was 25.2 µM (inactive), the GI50 (SF-295) was 22.5 µM (inactive) and the GI50 (SF-539) was 13.3 µM (inactive). For the same molecule, the GI50 (SK-MEL-2) was 12.4 µM (inactive), the GI50 (SK-MEL-5) was 18.7 µM (inactive) and the GI50 (SK-OV-3) was 24 µM (inactive). For the same molecule, the GI50 (SN12C) was 16.1 µM (inactive), the GI50 (SNB-19) was 30.1 µM (inactive) and the GI50 (SNB-75) was 21.8 µM (inactive). The GI50 (SW-620) was 18.3 µM (inactive), the GI50 (T47D) was 15.8 µM (inactive) and the GI50 (TK-10) was 15.3 µM (inactive). The GI50 (U-251) was 19.2 µM (inactive), the GI50 (UACC-257) was 17.9 µM (inactive) and the GI50 (UACC-62) was 15.2 µM (inactive). For the same molecule, the GI50 (UO-31) was 14.6 µM (inactive).
